Literature values, collected in patent US6762172B1, “Water-stabilized organosilane compounds and methods for using the same” (Nova Biogenetics, Inc., priority 1997, dated 2004).

Conditions: mixture with water, non-stabilized

SMILES: CCCCCCCCCCCCCCCCCC[N+](C)(C)CCC[Si](OC)(OC)OC.[Cl-] [3-(trimethoxysilyl)propyl-dimethyloctadecyl ammonium chloride]
- begins to lose effectiveness: four to eight
